Numbers after ± are expanded uncertainties.

The series is described as follows: activity coefficient (dimensionless); of the first substance listed, at infinite dilution; xn = mol fraction of the nth substance listed. Conditions: Liquid, Chromatography, x1 = 0.

On to `CCC(C)=O` [butanone] + CCCCCCCCn1cc[n+](COCCCOC[n+]2ccn(CCCCCCCC)c2C)c1C.O=S(=O)([N-]S(=O)(=O)C(F)(F)F)C(F)(F)F.O=S(=O)([N-]S(=O)(=O)C(F)(F)F)C(F)(F)F, for which the activity coefficient runs as follows: (323.15 K) 0.21 ± 0.03; (333.15 K) 0.19 ± 0.03; (343.15 K) 0.18 ± 0.03.
For `CCC(C)=O` [butanone] + CCCOC[n+]1ccc(N(C)C)cc1.O=S(=O)([N-]S(=O)(=O)C(F)(F)F)C(F)(F)F, the activity coefficient (323.15 K) is 0.51 ± 0.04, the activity coefficient (333.15 K) was 0.49 ± 0.04 and the activity coefficient (343.15 K) amounted to 0.45 ± 0.04.
For `CCC(C)=O` [butanone] + CCCOC[n+]1ccn(C)c1.F[B-](F)(F)F, in that order: 1.73 ± 0.12, 1.6 ± 0.11 and 1.49 ± 0.1.
In the same order, the values of `CCC(C)=O` [butanone] + CCCOC[n+]1ccn(C)c1.N#C[N-]C#N are 1.27 ± 0.08, 1.19 ± 0.08 and 1.12 ± 0.07.
In the same order, the values of `CCC(C)=O` [butanone] + CCCOC[n+]1ccn(C)c1.O=S(=O)([N-]S(=O)(=O)C(F)(F)F)C(F)(F)F are 0.47 ± 0.04, 0.43 ± 0.04 and 0.4 ± 0.03.
Consider `CCC(C)=O` [butanone] + CCCOC[n+]1ccn(Cc2ccccc2)c1.F[B-](F)(F)F, for which the activity coefficient worked out at 1.06 ± 0.07 (323.15 K), 0.96 ± 0.06 (333.15 K) and 0.89 ± 0.06 (343.15 K).
In the same order, the values of `CCC(C)=O` [butanone] + CCCOC[n+]1ccn(Cc2ccccc2)c1.N#C[N-]C#N are 0.9 ± 0.06, 0.87 ± 0.06 and 0.81 ± 0.05.
As to `CCC(C)=O` [butanone] + CCCOC[n+]1ccn(Cc2ccccc2)c1.O=S(=O)([N-]S(=O)(=O)C(F)(F)F)C(F)(F)F, the activity coefficient is, setting by setting: (323.15 K) 0.32 ± 0.03; (333.15 K) 0.26 ± 0.03; (343.15 K) 0.22 ± 0.03.
For `CCC(C)=O` [butanone] + CN(C)c1cc[n+](COCCCOC[n+]2ccc(N(C)C)cc2)cc1.O=S(=O)([N-]S(=O)(=O)C(F)(F)F)C(F)(F)F.O=S(=O)([N-]S(=O)(=O)C(F)(F)F)C(F)(F)F, in that order: 0.44 ± 0.04, 0.41 ± 0.03 and 0.38 ± 0.03.
For `CCC(C)=O` [butanone] + Cn1cc[n+](COCCCOC[n+]2ccn(C)c2)c1.N#C[N-]C#N.N#C[N-]C#N, in that order: 1.7 ± 0.11, 1.56 ± 0.1 and 1.44 ± 0.09.
In the same order, the values of `CCC(C)=O` [butanone] + Cn1cc[n+](COCCCOC[n+]2ccn(C)c2)c1.O=S(=O)([N-]S(=O)(=O)C(F)(F)F)C(F)(F)F.O=S(=O)([N-]S(=O)(=O)C(F)(F)F)C(F)(F)F are 0.36 ± 0.03, 0.34 ± 0.03 and 0.32 ± 0.03.
Take `CCC(C)=O` [butanone] + N#C[N-]C#N.N#C[N-]C#N.c1ccc(Cn2cc[n+](COCCCOC[n+]3ccn(Cc4ccccc4)c3)c2)cc1: the activity coefficient by setting is: (323.15 K) 1.78 ± 0.12; (333.15 K) 1.55 ± 0.1; (343.15 K) 1.41 ± 0.09.
Regarding `C1CCCCCC1` [cycloheptane] + CCCCCCCCn1cc[n+](COCCC)c1C.N#C[N-]C#N, the activity coefficient (323.15 K) is 15.7 ± 1.1.
`C1CCCCCC1` [cycloheptane] + CCCCCCCCn1cc[n+](COCCC)c1C.O=S(=O)([N-]S(=O)(=O)C(F)(F)F)C(F)(F)F: the activity coefficient by setting is: (323.15 K) 6.43 ± 0.44; (333.15 K) 8.72 ± 0.6; (343.15 K) 11.5 ± 0.78.
For `C1CCCCCC1` [cycloheptane] + CCCCCCCCn1cc[n+](COCCCOC[n+]2ccn(CCCCCCCC)c2C)c1C.N#C[N-]C#N.N#C[N-]C#N, in that order: 10.1 ± 0.69, 13.5 ± 0.92 and 18.3 ± 1.2.

(Values after the NIST ThermoML archive (doi:10.1016/j.fluid.2014.11.020).)
